Laboratory results published in patent US7135466B2 (Kirin Beer Kabushiki Kaisha, priority 1999, dated 2006).

Columns and labels:
PDGF-Ra = biological target: T1, PDGF-Ra (Homo sapiens, UniProt P16234); test: Inhibitory activity against PDGF-Ra phosphorylation by PDGF-AA stimulation using G292; assay type: cell-based; conditions: for IC50: > means inhibition at indicated concentration not more than 50%, < and << not less than 50%, read-out: PDGF (E) IC50
T1 construct: host or cells: G-292 human osteosarcoma cells
In short: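 G-292 human osteosarcoma cells, serum-starved overnight in 0.1% FBS, were pretreated with compound in DMSO for 1 hr at 37 °C, then stimulated with 50 ng/ml PDGF-AA for 5 min. Lysates were captured on anti-phosphotyrosine PY-20 plates and probed with anti-PDGF-Ra plus HRP secondary; absorbance read at 450 nm.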

c-kit = biological target: T2, c-kit (Homo sapiens, UniProt P10721); test: Inhibitory activity against c-kit autophosphorylation (MO7e cells, h-SCF); assay type: cell-based; conditions: for inhibition at 1 µM: Mo7e, figure within parentheses in −( ) or >1000( ), at 1000 nM; for IC50: MO7e cells, 50 ng/ml h-SCF, read-out: c-kit IC50
T2 construct: MO7e (human megakaryocytic leukemia cell line) which had been arrested for 20 hr; endogenous in cells; host or cells: MO7e human megakaryocytic leukemia cell line
In short: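 First, human megakaryocytic leukemia MO7e cells arrested 20 hr receive compound for one hour. Second, SCF stimulation (50 ng/ml) runs 5 min, after which cells are solubilized. Third, tyrosine-phosphorylated c-kit in the lysate is quantified by sandwich ELISA with absorbance at 450 nm.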

T1 sequence (P16234 24-1089): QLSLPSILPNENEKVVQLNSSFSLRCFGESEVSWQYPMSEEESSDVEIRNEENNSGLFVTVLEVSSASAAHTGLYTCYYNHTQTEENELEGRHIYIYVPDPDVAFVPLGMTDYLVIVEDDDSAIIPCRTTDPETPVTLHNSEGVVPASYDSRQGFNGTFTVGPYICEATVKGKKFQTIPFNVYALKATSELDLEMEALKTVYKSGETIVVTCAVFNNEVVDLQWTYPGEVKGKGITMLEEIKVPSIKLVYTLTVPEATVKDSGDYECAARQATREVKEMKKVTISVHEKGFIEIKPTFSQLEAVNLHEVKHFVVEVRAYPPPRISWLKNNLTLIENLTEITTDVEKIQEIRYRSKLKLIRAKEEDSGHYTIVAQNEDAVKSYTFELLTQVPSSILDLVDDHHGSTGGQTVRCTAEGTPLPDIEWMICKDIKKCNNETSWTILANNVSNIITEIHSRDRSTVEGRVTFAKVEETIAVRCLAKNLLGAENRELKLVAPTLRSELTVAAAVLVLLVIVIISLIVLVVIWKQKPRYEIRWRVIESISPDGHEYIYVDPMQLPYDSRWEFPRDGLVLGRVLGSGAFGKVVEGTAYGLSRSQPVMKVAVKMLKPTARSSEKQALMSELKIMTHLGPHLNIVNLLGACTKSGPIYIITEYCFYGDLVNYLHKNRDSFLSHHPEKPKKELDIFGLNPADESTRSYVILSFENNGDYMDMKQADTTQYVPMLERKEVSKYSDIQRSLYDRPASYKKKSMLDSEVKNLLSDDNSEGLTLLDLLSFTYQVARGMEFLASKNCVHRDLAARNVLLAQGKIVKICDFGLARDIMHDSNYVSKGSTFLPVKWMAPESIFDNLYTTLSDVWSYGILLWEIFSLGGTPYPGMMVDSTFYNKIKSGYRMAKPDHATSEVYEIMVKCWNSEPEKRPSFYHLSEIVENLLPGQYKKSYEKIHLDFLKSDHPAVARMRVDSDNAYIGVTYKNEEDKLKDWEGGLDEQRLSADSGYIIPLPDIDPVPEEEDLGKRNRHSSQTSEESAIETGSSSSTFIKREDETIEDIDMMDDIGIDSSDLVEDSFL
T2 sequence (P10721 26-976): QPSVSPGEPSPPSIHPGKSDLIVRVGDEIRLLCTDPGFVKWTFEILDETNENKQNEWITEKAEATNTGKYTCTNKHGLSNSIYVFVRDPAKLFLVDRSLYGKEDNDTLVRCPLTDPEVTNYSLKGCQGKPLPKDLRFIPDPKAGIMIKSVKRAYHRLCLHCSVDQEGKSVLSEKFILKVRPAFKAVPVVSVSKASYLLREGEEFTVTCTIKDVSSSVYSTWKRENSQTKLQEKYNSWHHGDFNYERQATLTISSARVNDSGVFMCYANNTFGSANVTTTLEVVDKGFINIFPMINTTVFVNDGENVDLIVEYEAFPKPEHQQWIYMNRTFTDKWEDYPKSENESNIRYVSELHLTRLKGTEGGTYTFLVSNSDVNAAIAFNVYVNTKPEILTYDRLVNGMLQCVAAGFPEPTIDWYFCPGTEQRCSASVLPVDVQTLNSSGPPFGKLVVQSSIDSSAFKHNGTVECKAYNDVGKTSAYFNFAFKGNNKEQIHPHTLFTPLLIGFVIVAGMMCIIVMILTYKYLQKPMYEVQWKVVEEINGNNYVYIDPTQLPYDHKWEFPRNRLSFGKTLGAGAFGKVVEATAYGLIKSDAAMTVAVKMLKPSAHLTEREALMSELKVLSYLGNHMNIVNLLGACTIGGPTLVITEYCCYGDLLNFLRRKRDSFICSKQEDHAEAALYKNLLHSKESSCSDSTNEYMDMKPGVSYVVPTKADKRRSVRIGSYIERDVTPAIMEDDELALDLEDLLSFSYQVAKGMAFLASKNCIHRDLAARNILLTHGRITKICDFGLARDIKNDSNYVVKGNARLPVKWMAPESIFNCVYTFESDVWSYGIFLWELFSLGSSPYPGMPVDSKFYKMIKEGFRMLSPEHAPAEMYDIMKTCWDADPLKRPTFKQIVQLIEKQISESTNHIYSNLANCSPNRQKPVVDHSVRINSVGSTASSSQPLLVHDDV

Compound | IC50 (PDGF-Ra) | inhibition at 1 µM (c-kit) | IC50 (c-kit) | inhibition at 0.1 µM (PDGF-Ra; G292, figure within parentheses in >100( ), at 100 nM, read-out: PDGF (E) inhibition (%) at 100 nM)
CCOc1ccc(C(=O)NC(=S)Nc2ccc(Oc3ncnc4cc(OC)c(OC)cc34)cc2)cc1 [Example 716, N-{4-[(6,7-Dimethoxy-4-quinazolinyl)oxy]phenyl}-N′-(4-ethoxybenzoyl)thiourea] | 11 nM | 19% |  | 
COc1cc2ncnc(Oc3ccc(NC(=S)NC(=O)c4cc(C)oc4C)cc3)c2cc1OC [Example 718, N-{4-[(6,7-Dimethoxy-4-quinazolinyl)oxy]phenyl}-N′-[(2,5-dimethyl-3-furyl)carbonyl]thiourea] | < 10 nM | 19% |  | 
CCCCC(=O)NC(=S)Nc1ccc(Oc2ccnc3cc(OC)c(OC)cc23)c(Cl)c1 [Example 719, N-{3-Chloro-4-[(6,7-dimethoxy-4-quinolyl)oxy]phenyl}-N′-pentanoylthiourea] | 14 nM |  | 431 nM | 
COc1cc2nccc(Oc3ccc(NC(=S)NC(=O)CCc4ccc(C)cc4)cc3)c2cc1OC [Example 721, N-{4-[(6,7-Dimethoxy-4-quinolyl)oxy]phenyl}-N′-[3-(4-methylphenyl)propanoyl]thiourea] | 36 nM | 20% |  | 
COc1cc2nccc(Oc3ccc(NC(=S)NC(=O)Cc4ccccc4Cl)cc3)c2cc1OC [Example 723, N-[2-(2-Chlorophenyl)acetyl]-N′-{4-[(6,7-dimethoxy-4-quinolyl)oxy]phenyl}thiourea] | 17 nM |  | 380 nM | 
COc1cc2nccc(Oc3ccc(NC(=S)NC(=O)CCCc4ccccc4)cc3)c2cc1OC [Example 725, N-{4-[(6,7-Dimethoxy-4-quinolyl)oxy]phenyl}-N′-(4-phenylbutanoyl)thiourea] | < 10 nM |  | 413 nM | 
COc1cc2nccc(Oc3ccc(NC(=S)NC(=O)CCCc4ccccc4)cc3Cl)c2cc1OC [Example 726, N-{3-Chloro-4-[(6,7-dimethoxy-4-quinolyl)oxy]phenyl}-N′-(4-phenylbutanoyl)thiourea] | 37 nM |  | 624 nM | 
COc1ccccc1CC(=O)NC(=S)Nc1ccc(Oc2ccnc3cc(OC)c(OC)cc23)c(Cl)c1 [Example 734, N-{3-Chloro-4-[(6,7-dimethoxy-4-quinolyl)oxy]phenyl}-N′-[2-(2-methoxyphenyl)acetyl]thiourea] | 29 nM |  | 216 nM | 
COc1cc2nccc(Oc3ccc(NC(=S)NC(=O)COc4ccccc4)cc3)c2cc1OC [Example 737, N-{4-[(6,7-Dimethoxy-4-quinolyl)oxy]phenyl}-N′-(2-phenoxyacetyl)thiourea] | < 10 nM |  | 523 nM | 
COc1cc2nccc(Oc3ccc(NC(=S)NC(=O)COc4ccccc4)cc3Cl)c2cc1OC [Example 738, N-{3-Chloro-4-[(6,7-dimethoxy-4-quinolyl)oxy]phenyl}-N′-(2-phenoxyacetyl)thiourea] | 11 nM |  | 269 nM | 
COc1cc2nccc(Oc3ccc(NC(=S)NC(=O)COc4ccccc4C)cc3)c2cc1OC [Example 739, N-{4-[(6,7-Dimethoxy-4-quinolyl)oxy]phenyl}-N′-[2-(2-methylphenoxy)acetyl]thiourea] | < 10 nM |  | 234 nM | 
COc1cc2nccc(Oc3ccc(NC(=S)NC(=O)COc4ccccc4C)cc3Cl)c2cc1OC [Example 740, N-{3-Chloro-4-[(6,7-dimethoxy-4-quinolyl)oxy]phenyl}-N′-[2-(2-methylphenoxy)acetyl]thiourea] | 23 nM |  | 335 nM | 
CCCCOc1ccc(C(=O)NC(=S)Nc2ccc(Oc3ccnc4cc(OC)c(OC)cc34)cc2)cc1 [Example 751, N-(4-Butoxybenzoyl)-N′-{4-[(6,7-dimethoxy-4-quinolyl)oxy]phenyl}thiourea] | 70 nM | 23% |  | 
CCCCCOc1ccc(C(=O)NC(=S)Nc2ccc(Oc3ccnc4cc(OC)c(OC)cc34)cc2)cc1 [Example 753, N-{4-[(6,7-Dimethoxy-4-quinolyl)oxy]phenyl}-N′-[4-(pentyloxy)benzoyl]thiourea] | > 100 nM | 9% |  | 28%
COc1cc2nccc(Oc3ccc(NC(=S)NC(=O)C4C(C)(C)C4(C)C)cc3Cl)c2cc1OC [Example 760, N-{3-Chloro-4-[(6,7-dimethoxy-4-quinolyl)oxy]phenyl}-N′-[(2,2,3,3-tetramethylcyclopropyl)carbonyl]thiourea] | 83 nM | 48% |  | 

Other lines, results leading:

IC50 (PDGF-Ra) | inhibition at 1 µM (c-kit) | IC50 (c-kit) | inhibition at 0.1 µM (PDGF-Ra; G292, figure within parentheses in >100( ), at 100 nM, read-out: PDGF (E) inhibition (%) at 100 nM) | Compound
42 nM |  | 30 nM |  | CCCCC(=O)NC(=S)Nc1ccc(Oc2ncnc3cc(OC)c(OC)cc23)cc1 [Example 720, N-{4-[(6,7-Dimethoxy-4-quinazolinyl)oxy]phenyl}-N′-pentanoylthiourea]
< 10 nM |  | 85 nM |  | COc1cc2ncnc(Oc3ccc(NC(=S)NC(=O)CCc4ccc(C)cc4)cc3)c2cc1OC [Example 722, N-{4-[(6,7-Dimethoxy-4-quinazolinyl)oxy]phenyl}-N′-[3-(4-methylphenyl)propanoyl]thiourea]
< 10 nM |  | 116 nM |  | COc1cc2ncnc(Oc3ccc(NC(=S)NC(=O)Cc4ccccc4Cl)cc3)c2cc1OC [Example 724, N-[2-(2-Chlorophenyl)acetyl]-N′-{4-[(6,7-dimethoxy-4-quinazolinyl)oxy]phenyl}thiourea]
34 nM |  | 634 nM |  | COc1cc2nccc(Oc3ccc(NC(=S)NC(=O)Cc4ccccc4F)cc3Cl)c2cc1OC [Example 730, N-{3-Chloro-4-[(6,7-dimethoxy-4-quinolyl)oxy]phenyl}-N′-[2-(2-fluorophenyl)acetyl]thiourea]
17 nM |  | 259 nM |  | COc1cc2nccc(Oc3ccc(NC(=S)NC(=O)CCc4ccccc4C)cc3)c2cc1OC [Example 731, N-{4-[(6,7-Dimethoxy-4-quinolyl)oxy]phenyl}-N′-[3-(2-methylphenyl)propanoyl]thiourea]
29 nM |  | 186 nM |  | COc1ccccc1CC(=O)NC(=S)Nc1ccc(Oc2ccnc3cc(OC)c(OC)cc23)cc1 [Example 733, N-{4-[(6,7-Dimethoxy-4-quinolyl)oxy]phenyl}-N′-[2-(2-methoxyphenyl)acetyl]thiourea]
10 nM |  | 548 nM |  | COc1cc2nccc(Oc3ccc(NC(=S)NC(=O)[C@H](C)c4ccccc4)cc3)c2cc1OC [Example 743, N-{4-[(6,7-Dimethoxy-4-quinolyl)oxy]phenyl}-N′-[(2R)-2-phenylpropanoyl]thiourea]
35 nM |  | 759 nM |  | CCC(C(=O)NC(=S)Nc1ccc(Oc2ccnc3cc(OC)c(OC)cc23)cc1)c1ccccc1 (centres unmarked) [Example 747, N-{4-[(6,7-Dimethoxy-4-quinolyl)oxy]phenyl}-N′-(2-phenylbutanoyl)thiourea]
12 nM | 41% |  |  | COc1cc2nccc(Oc3ccc(NC(=S)NC(=O)C4(C)CC4(Cl)Cl)cc3)c2cc1OC (centres unmarked) [Example 749, N-[(2,2-Dichloro-1-methylcyclopropyl)carbonyl]-N′-{4-[(6,7-dimethoxy-4-quinolyl)oxy]phenyl}thiourea]
17 nM | 43% |  |  | COc1cc2nccc(Oc3ccc(NC(=S)NC(=O)C4(C)CC4(Cl)Cl)cc3Cl)c2cc1OC (centres unmarked) [Example 750, N-{3-Chloro-4-[(6,7-dimethoxy-4-quinolyl)oxy]phenyl}-N′-[(2,2-dichloro-1-methylcyclopropyl)carbonyl]thiourea]
26 nM |  | 323 nM |  | COc1cc2nccc(Oc3ccc(NC(=S)NC(=O)C4C(C)(C)C4(C)C)cc3)c2cc1OC [Example 759]
